Test results reported in patent US20240115709A1, “ASSEMBLY OF ORGANIC SUPRAMOLECULAR VESSELS FOR CONTROLLED DRUG RELEASE” (NOBLE PANACEA LABS, INC., priority 2021, published 2024).
Converted amounts (≈) assume the structure as drawn. Like-named read-outs stand apart in the source and are kept apart here. Blank lines part the entries; values can stand above or below the molecule they belong to.

Tests used:
[1] = Thermogravimetric analysis (thermal stability); type: physicochemical; settings: 250-380° C., argon atmosphere
Method: The thermal stability of the γ-CD. γ-CDP and γ-CDP has been investigated (FIG. 4) using thermogravimetric analysis which was carried out in argon atmosphere. […] This weight loss may be associated to the decomposition of the ester functional groups attaching the aliphatic chains to the CD.
Thermogravimetric (TGA, Netzsch) was carried out from room temperature to 400° C. at a ramping rate of 5° C. min−1 under an Ar flow.

[2] = cited from earlier work
[3] = 20° C., reported value; cited from earlier work
[4] = Release/diffusion using Franz diffusion cell with artificial membrane; type: in vitro ADME; settings: control, OA only, within 4 hours
[5] = Solubility in water and solvents; type: physicochemical

weight loss [1]: 60%
Compound: OC[C@H]1O[C@@H]2O[C@H]3[C@H](O)[C@@H](O)[C@@H](O[C@H]4[C@H](O)[C@@H](O)[C@@H](O[C@H]5[C@H](O)[C@@H](O)[C@@H](O[C@H]6[C@H](O)[C@@H](O)[C@@H](O[C@H]7[C@H](O)[C@@H](O)[C@@H](O[C@H]8[C@H](O)[C@@H](O)[C@@H](O[C@H]9[C@H](O)[C@@H](O)[C@@H](O[C@H]1[C@H](O)[C@H]2O)O[C@@H]9CO)O[C@@H]8CO)O[C@@H]7CO)O[C@@H]6CO)O[C@@H]5CO)O[C@@H]4CO)O[C@@H]3CO [γ-CD, γ-Cyclodextrin]

Compound: Oc1ccc(C=Cc2cc(O)cc(O)c2)cc1 [resveratrol]
solubility in water [2]: 50 µg/mL (≈ 219 µM)

Compound: Cc1c(C)c2c(c(C)c1O)CC[C@@](C)(CCC[C@H](C)CCC[C@H](C)CCCC(C)C)O2 [α-tocopherol]
viscosity [3]: 4.6 Pa·s

diffusion through the membrane [4]: 92%
Compound: CN(C)c1ccc2cc3ccc(N(C)C)cc3nc2c1.Cl [Orange Acridine hydrochloride (OA), Orange Acridine hydrochloride]
solubility in water ([2]; 23° C.): 6000 µg/mL

solubility in EtOAc upon addition of the CDOs [5]: increases significantly | solubility in EtOAc ([5]; alone): low solubility
Compound: NC(=O)c1cccnc1 [niacinamide]

Compound: O=C1O[C@H]([C@@H](O)CO)C([O-])=C1OP(=O)([O-])[O-].O=C1O[C@H]([C@@H](O)CO)C([O-])=C1OP(=O)([O-])[O-].[Mg+2].[Mg+2].[Mg+2] [magnesium ascorbyl phosphate (MgAsc), magnesium ascorbyl phosphate]
solubility in water [2]: 8100 µg/mL

Compound: CCCCCCCC/C=C\CCCCCCCC(=O)O [oleic acid]
viscosity [3]: 0.0348 Pa·s
